Source: ChEMBL document CHEMBL3232741, “Isoxazoline containing natural products as anticancer agents: a review” (Eur J Med Chem, 2014)
≈ marks a conversion by molar mass, not a printed value. Values belong to the molecule of their own block, whether it stands above or below them.

Key:
HeLa = experiment: Cytotoxicity against human HeLa cells; format: functional, cell-based
L1210 = experiment: Cytotoxicity against mouse L1210 cells; format: functional, cell-based
KB = experiment: Cytotoxicity against human KB cells; format: functional, cell-based
[1] = biological target: T1, Adenosine receptor A1 (Homo sapiens) (UniProt P30542); experiment: Displacement of [3H]DPCPX from adenosine A1 receptor in human HeLa cells at 100 uM by whole cell binding assay; format: cell-based
T1 sequence (whole entry): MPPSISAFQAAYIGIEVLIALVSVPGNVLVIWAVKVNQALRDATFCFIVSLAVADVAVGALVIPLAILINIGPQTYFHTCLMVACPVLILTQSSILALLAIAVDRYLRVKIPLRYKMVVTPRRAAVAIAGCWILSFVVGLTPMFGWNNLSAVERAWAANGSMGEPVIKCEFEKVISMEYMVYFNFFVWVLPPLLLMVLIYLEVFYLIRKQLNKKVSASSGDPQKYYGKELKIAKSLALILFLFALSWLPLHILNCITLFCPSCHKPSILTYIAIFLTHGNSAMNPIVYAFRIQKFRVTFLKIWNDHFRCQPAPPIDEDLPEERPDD

Jurkat = experiment: Antiproliferative activity against human Jurkat cells by MTT assay; format: functional, cell-based
U-937 [2] = experiment: Antiproliferative activity against human U937 cells by MTT assay; format: functional, cell-based
U-937 [3] = experiment: Induction of apoptosis in human U937 cells after 24 to 48 hrs by annexin V/propidium iodide staining based flow cytometry; format: functional
P388 = experiment: Cytotoxicity against mouse P388 cells; format: functional, cell-based

SMILES: COC1=C(Br)[C@H](O)[C@@]2(C=C1Br)CC(C(=O)NCCCOc1c(Br)cc(CCNC(=O)C3=NO[C@]4(C=C(Br)C(OC)=C(Br)[C@@H]4O)C3)cc1Br)=NO2
EC50 (HeLa): 2.6 µM

SMILES: COC1=C(Br)[C@H](O)[C@@]2(C=C1Br)CC(C(=O)NCCCOc1c(Br)cc(CCN(C)C)cc1Br)=NO2
IC50 (L1210): 2.8 µg/mL (≈ 3.76 µM)
IC50 (KB): 7.6 µg/mL (≈ 10.2 µM)

inhibition [1]: 61%
SMILES: COC1=C(Br)[C@H](O)[C@@]2(C=C1Br)CC(C(=O)NCCCOc1c(Br)cc(CCNS(=O)(=O)O)cc1Br)=NO2
EC50 (HeLa): 60 µM

IC50 (Jurkat): 7.39 µM
IC50 (U-937 [2]): 7.39 µM
SMILES: COC1=C(Br)[C@H](O)[C@@]2(C=C1Br)CC(C(=O)NCC(O)COc1c(Br)cc(C(O)CNC(=O)C3=NO[C@]4(C=C(Br)C(OC)=C(Br)[C@@H]4O)C3)cc1Br)=NO2 (stereo not given in full)
Activity (U-937 [3]): 35%

SMILES: COC1=C(Br)[C@H](O)[C@@]2(C=C1Br)CC(C(=O)NCCCCNC(=O)C1=NO[C@]3(C=C(Br)C(OC)=C(Br)[C@@H]3O)C1)=NO2 [AEROTHIONIN]
EC50 (HeLa): 42 µM

IC50 (Jurkat): 8.1 µM
IC50 (U-937 [2]): 8.1 µM
SMILES: COC1=C(Br)[C@H](O)[C@@]2(C=C1Br)CC(C(=O)NCCCOc1c(Br)cc(C(O)CNC(=O)C3=NO[C@]4(C=C(Br)C(OC)=C(Br)[C@@H]4O)C3)cc1Br)=NO2 (stereo not given in full)
Activity (U-937 [3]): 35%

SMILES: COC1=C(Br)[C@H](O)[C@@]2(C=C1Br)CC(C(=O)NCCc1c(Br)cc(OCCCN(C)C)cc1Br)=NO2 [PUREALIDIN Q]
IC50 (L1210): 0.95 µg/mL (≈ 1.27 µM)
IC50 (KB): 1.2 µg/mL (≈ 1.61 µM)

SMILES: COC1=C(Br)C[C@]2(OC=C1Br)ON=C(C(=O)NCCCOc1c(Br)cc(CCNC=C3C(=O)C=CC3=O)cc1Br)[C@@H]2O (relative stereo)
IC50 (P388): 2.1 µg/mL (≈ 2.5 µM)
